Data: patent US20070225246A1, “O-acetyl-ADP-ribose non-hydrolyzable analogs” (priority 2006, published 2007)
Like-named read-outs stand apart in the source and are kept apart here.

Experiments:
[1] = HPLC stability studies at physiological temperature and pH; format: physicochemical; conditions: 500 μM in 50 mM Tris pH 7.5, 1 mM DTT, 37° C.
Procedure: To validate the installation of an N-acetyl as a non-hydrolyzable substitution, the stabilities of both 2′- and 3′-NAADPr were evaluated at physiological temperature and pH using conditions previously described (Borra et al., 2002, J. Biol. Chem. 277: 12632-12641). […] HPLC analysis of both 2′- and 3′-NAADPr using exact conditions indicated negligable decomposition (<1%) over 3 days and confirmed the stability of the acetyl funcitonality to spontaneous hydrolysis at physiological pH.
Reactions were carried out with both analogs (final concentration of 500 μM) in 50 mM Tris (pH 7.5 at 37° C.) containing 1 mM DTT. Samples were incubated at 37° C. over 3 days and four time points were collected (0, 24, 48, and 72 h). Each sample was quenched with H2O containing 0.05% TFA and analyzed by HPLC (analytical C18) using the method described in general procedures. Each trace was integrated (Shimadzu EZStart version 7.2.1 SP1) to determine peak area and analog percentage is shown in the following table 1. Both 2′- and 3′-NAADPr contained trace impurities at 12.9 and 12.5 min respectively and contributed to the observed degradation products visible at 23.3 min in each study.

[2] = molecular target: T1, human macroH2A1.1 domain (Homo sapiens, UniProt O75367); experiment: MacroH2A1.1 binding (calorimetry); conditions: method similar to Kustatcher
T1 sequence (O75367 184-367 limits assumed): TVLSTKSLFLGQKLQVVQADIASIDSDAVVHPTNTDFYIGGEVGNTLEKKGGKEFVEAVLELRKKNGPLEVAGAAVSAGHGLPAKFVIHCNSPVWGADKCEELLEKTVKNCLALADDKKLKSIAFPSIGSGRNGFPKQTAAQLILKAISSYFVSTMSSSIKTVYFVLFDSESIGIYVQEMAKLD
Source text: (§1) MacroH2A1.1 is an atypical histone variant associated with heterochromatin and implicated in transcriptional repression. […] The splice-variant MacroH2A1.2 was also studied, but no binding of ADPr was observed. The binding of 2′- and 3′-NAADPr may be evaluated using a protocol similar to that described by Kustatcher.

[3] = molecular target: splice-variant MacroH2A1.2 (Homo sapiens, UniProt O75367); experiment: MacroH2A1.2 binding (calorimetry); conditions: method similar to Kustatcher
Chain of splice-variant MacroH2A1.2 (O75367 1-372 isoform O75367-1): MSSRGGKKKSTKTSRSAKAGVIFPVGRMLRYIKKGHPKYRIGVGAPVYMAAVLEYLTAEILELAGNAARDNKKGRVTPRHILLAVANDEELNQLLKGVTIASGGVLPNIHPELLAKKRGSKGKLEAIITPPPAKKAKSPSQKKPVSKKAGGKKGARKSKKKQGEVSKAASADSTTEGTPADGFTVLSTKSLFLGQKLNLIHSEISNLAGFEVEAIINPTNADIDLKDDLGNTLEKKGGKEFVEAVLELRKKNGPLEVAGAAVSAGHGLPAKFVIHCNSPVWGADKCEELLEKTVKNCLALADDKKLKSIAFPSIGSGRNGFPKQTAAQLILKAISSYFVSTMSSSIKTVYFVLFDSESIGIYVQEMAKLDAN
Source text: as §1

[4] = molecular target: T2, YSA1 (Saccharomyces cerevisiae, UniProt Q01976); experiment: Nudix hydrolase hydrolysis by YSA1 (Michaelis-Menten); format: biochemical, yeast; conditions: substrate 5-300 μM, YSA1 10 ng
T2 sequence (Q01976 1-231): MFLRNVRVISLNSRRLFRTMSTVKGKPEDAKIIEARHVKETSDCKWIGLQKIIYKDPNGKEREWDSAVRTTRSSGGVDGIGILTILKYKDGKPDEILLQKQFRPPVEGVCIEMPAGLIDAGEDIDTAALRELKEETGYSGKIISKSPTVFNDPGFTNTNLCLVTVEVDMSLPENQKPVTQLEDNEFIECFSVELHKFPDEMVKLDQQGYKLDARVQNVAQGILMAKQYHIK
Procedure: (§2) The Nudix hydrolases, mNudT5 and YSA1, and NudT9 are a family of ADPr metabolizing enzymes. […] Reaction mixtures containing ADPr (5-300 μM) were incubated with NudT9 (100 ng) or YSA1 (10 ng). Michaelis-Menten plots were generated for the hydrolysis of ADPr by NudT9 and YSA1. […] The hydrolysis of 2′- and 3′-NAADPr is evaluated using a protocol similar to that described by Rafty.

[5] = molecular target: T3, NudT9 (Homo sapiens, UniProt Q9BW91); experiment: Nudix hydrolase hydrolysis by NudT9 (Michaelis-Menten); format: biochemical; conditions: substrate 5-300 μM, NudT9 100 ng
T3 sequence (Q9BW91 47-350): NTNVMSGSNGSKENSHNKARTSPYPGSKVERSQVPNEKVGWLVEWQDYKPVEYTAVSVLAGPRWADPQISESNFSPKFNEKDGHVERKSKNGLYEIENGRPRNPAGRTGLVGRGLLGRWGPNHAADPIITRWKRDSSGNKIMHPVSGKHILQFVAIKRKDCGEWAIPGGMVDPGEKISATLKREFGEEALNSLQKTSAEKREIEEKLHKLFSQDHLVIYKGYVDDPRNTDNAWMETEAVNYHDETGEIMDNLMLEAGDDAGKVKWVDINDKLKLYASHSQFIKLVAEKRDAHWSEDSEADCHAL
Procedure: as §2

[6] = within 3 h, physiological temperature and pH (Borra et al., 2002); cited from earlier work
[7] = molecular target: T3, NudT9; conditions: in vitro (Rafty et al., 2002); cited from earlier work
[8] = molecular target: mNudT5 (Mus musculus, UniProt Q9JKX6); conditions: in vitro (Rafty et al., 2002); cited from earlier work
Chain of mNudT5 (Q9JKX6 whole entry): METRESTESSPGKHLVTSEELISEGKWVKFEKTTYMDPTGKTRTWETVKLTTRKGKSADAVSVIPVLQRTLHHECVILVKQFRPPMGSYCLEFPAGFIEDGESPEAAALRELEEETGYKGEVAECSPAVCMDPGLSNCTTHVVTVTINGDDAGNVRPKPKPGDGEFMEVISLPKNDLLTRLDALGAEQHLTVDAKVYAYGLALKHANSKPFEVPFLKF

[9] = molecular target: T1, human macroH2A1.1 domain; conditions: calorimetry, Kustatcher et al., 2005; cited from earlier work
[10] = molecular target: T2, YSA1; conditions: in vitro (Rafty et al., 2002); cited from earlier work

Compound: 3′-N-Acetyl-ADP-ribose [3′-NAADPr]
- analog percentage (HPLC peak area) ([1]; 0 h): 95.7%
- analog percentage (HPLC peak area) ([1]; 24 h): 98.2%
- analog percentage (HPLC peak area) ([1]; 48 h): 98.0%
- analog percentage (HPLC peak area) ([1]; 72 h): 98.0%

Compound: CC(=O)NC1C(O)O[C@H](COP(=O)(O)OP(=O)(O)OC[C@H]2O[C@@H](n3cnc4c(N)ncnc43)C(O)C2O)[C@@H]1O (stereo partly drawn) [2′-NAADPr, 2′-N-Acetyl-ADP-ribose]
- analog percentage (HPLC peak area) ([1]; 0 h): 98.7%
- analog percentage (HPLC peak area) ([1]; 24 h): 98.7%
- analog percentage (HPLC peak area) ([1]; 48 h): 98.2%
- analog percentage (HPLC peak area) ([1]; 72 h): 98.3%

Compound: Nc1ncnc2c1ncn2[C@@H]1O[C@H](COP(=O)(O)OP(=O)(O)OC[C@H]2OC(O)[C@H](O)[C@@H]2O)[C@@H](O)[C@H]1O (stereo partly drawn) [ADPr, ADP-ribose]
- Kd [2]: 2400 nM
- enthalpy [2]: -15.4 kcal/mol
- binding [3]: no binding
- Km [4]: 39.9 µM
- kcat [4]: 6.5 s⁻¹
- Km [5]: 23.9 µM
- kcat [5]: 9.3 s⁻¹

Compound: O-Acetyl-ADP-ribose [OAADPr]
- hydrolyzed to ADPr [6]: approximately 18%
- hydrolysis efficiency, less efficient as compared to ADPr [7]: 500 fold
- hydrolysis to AMP and acetylated ribose 5′-phosphate [8]: efficiently hydrolyze
- Kd [9]: ~2000 nM
- enthalpy [9]: -17.8 kcal/mol
- hydrolysis to AMP and acetylated ribose 5′-phosphate [10]: efficiently hydrolyze
